From patent publication US10975068B2, “6-aminopyridin-3-yl thiazoles as modulators of RORγT” (Janssen Pharmaceutica NV, priority 2016, dated 2021)
Like-named read-outs stand apart in the source and are kept apart here.

Key:
[1] = target: human RORγt ligand binding domain (RORγt LBD) (Homo sapiens (Human), UniProt P51449); assay: RORγt ThermoFluor® assay (thermal shift binding); details: read-out: ThermoFluor® Assay, Kd
Description: ThermoFluor® is a fluorescence based assay that estimates ligand binding affinities by measuring the effect of a ligand on protein thermal stability (Pantoliano, M. W., Petrella, E. C., Kwasnoski, J. D., Lobanov, V. S., Myslik, J., Graf, E., Carver, T., Asel, E., Springer, B. A., Lane, P., and Salemme, F. R. (2001) High-density miniaturized thermal shift assays as a general strategy for drug discovery. J Biomol Screen 6, 429-40, and Matulis, D., Kranz, J. K., Salemme, F. R., and Todd, M. J. (2005) Thermodynamic stability of carbonic anhydrase: measurements of binding affinity and stoichiometry using ThermoFluor. Biochemistry 44, 5258-66). This approach is applicable to a wide variety of systems, and rigorous in theoretical interpretation through quantitation of equilibrium binding constants (KD).
The shift in the melting point described as a ΔTm is proportional to the concentration and affinity of the ligand. The compound potency may be compared as a rank order of either ΔTm values at a single compound concentration or in terms of KD values, estimated from concentration response curves.
RORγt ThermoFluor® Assay Construct
For the RORγt construct used in the ThermoFluor® assay, numbering for the nucleotide sequences was based on the reference sequence for human RORγt, transcript variant 2, NCBI Accession: NM_001001523.1 (SEQ ID NO:1). Nucleotides 850-1635 (SEQ ID NO:2) coding for the wild type human RORγt ligand binding domain (RORγt LBD) were cloned into the pHIS1 vector, a modified pET E. coli expression vector (Accelagen, San Diego), containing an in-frame N-terminal His-tag and a TurboTEV protease cleavage site (ENLYFQG, SEQ ID NO:3) upstream of the cloned insert sequence. The amino acid sequence for the RORγt construct used in the Thermofluor® assay is shown as SEQ ID NO:4.
ThermoFluor® experiments were carried out using instruments owned by Janssen Research and Discovery, L.L.C. through its acquisition of 3-Dimensional Pharmaceuticals, Inc. 1,8-ANS (Invitrogen) was used as a fluorescent dye. Protein and compound solutions are dispensed into black 384-well polypropylene PCR microplates (Abgene) and overlayed with silicone oil (1 μL, Fluka, type DC 200) to prevent evaporation.
Bar-coded assay plates are robotically loaded onto a thermostatically controlled PCR-type thermal block and then heated at a typical ramp-rate of 1° C./min for all experiments. Fluorescence was measured by continuous illumination with UV light (Hamamatsu LC6) supplied via fiber optic and filtered through a band-pass filter (380-400 nm; >6 OD cutoff). Fluorescence emission of the entire 384-well plate was detected by measuring light intensity using a CCD camera (Sensys, Roper Scientific) filtered to detect 500±25 nm, resulting in simultaneous and independent readings of all 384 wells. Images were collected at each temperature, and the sum of the pixel intensity in a given area of the assay plate was recorded versus temperature. Reference wells contained RORγt without compounds, and the assay conditions were as follows: • 0.065 mg/mL RORγt • 60 μM 1,8-ANS • 100 mM Hepes, pH 7.0 • 10 mM NaCl • 2.5 mM GSH • 0.002% Tween-20
Project compounds were arranged in a pre-dosed mother plate (Greiner Bio-one) wherein compounds are serially diluted in 100% DMSO by 1:2 from a high concentration of 10 mM over 12 columns within a series (column 12 is a reference well containing DMSO, no compound). The compounds were robotically dispensed directly into assay plates (×=46 nL) using a Hummingbird capillary liquid handling instrument (Digilab). Following compound dispense, protein and dye in buffer was added to achieve the final assay volume of 3 μL, followed by 1 μL of silicone oil.

full-length human RORγt = full-length human RORγt (Homo sapiens (Human), UniProt P51449); assay: RORγt (full-length human) reporter assay, Conditions B or C; type: cell-based; details: for inhibition at 3 µM: at 3 μM compound concentration; for inhibition at 3 µM / inhibition at 1 µM: read-out: RORγt (FL) Reporter Assay B or C, % inhibition; for inhibition at 1 µM: at 1 μM compound concentration
Outline: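 HEK293T cells transiently co-transfected with GAL4-DBD–full-length human RORγt (nt 142-1635, NM_001001523.1) plus GAL4-firefly and CMV-Renilla luciferase reporters; compounds added 4-6 h post-transfection for 16-20 h in 1.3% FBS, 0.1% DMSO. Firefly signal normalized to DMSO and saturating reference compound, then to Renilla; IC50 from concentration plots.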

[2] = read-out: RORγt (FL) Reporter Assay B or C, IC50

Sequence of full-length human RORγt (P51449 other isoform, or with tags, fused parts or gaps): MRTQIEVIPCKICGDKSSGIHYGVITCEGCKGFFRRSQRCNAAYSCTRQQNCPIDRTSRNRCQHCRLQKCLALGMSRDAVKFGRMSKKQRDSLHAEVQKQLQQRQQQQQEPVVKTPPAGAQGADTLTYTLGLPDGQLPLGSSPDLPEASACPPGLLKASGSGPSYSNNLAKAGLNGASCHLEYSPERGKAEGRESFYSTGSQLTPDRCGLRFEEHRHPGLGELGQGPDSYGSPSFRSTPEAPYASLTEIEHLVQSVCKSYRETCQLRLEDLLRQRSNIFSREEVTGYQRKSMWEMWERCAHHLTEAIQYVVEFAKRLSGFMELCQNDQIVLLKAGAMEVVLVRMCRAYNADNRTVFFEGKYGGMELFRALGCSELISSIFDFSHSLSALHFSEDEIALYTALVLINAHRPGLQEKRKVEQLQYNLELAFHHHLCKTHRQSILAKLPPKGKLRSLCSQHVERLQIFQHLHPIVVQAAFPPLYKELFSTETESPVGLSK
Sequence of human RORγt ligand binding domain (RORγt LBD) (P51449 other isoform, or with tags, fused parts or gaps): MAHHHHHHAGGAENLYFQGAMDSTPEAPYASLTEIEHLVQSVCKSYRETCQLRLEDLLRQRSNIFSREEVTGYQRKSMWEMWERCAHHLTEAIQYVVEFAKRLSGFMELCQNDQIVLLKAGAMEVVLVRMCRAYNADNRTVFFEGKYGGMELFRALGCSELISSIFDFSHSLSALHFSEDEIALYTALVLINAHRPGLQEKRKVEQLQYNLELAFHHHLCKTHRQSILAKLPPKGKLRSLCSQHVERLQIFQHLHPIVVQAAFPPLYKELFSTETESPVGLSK

**Q.** For `CC[C@H](Nc1cc(C(F)F)c(-c2sc(C(=O)N[C@H]3CC[C@@H]3O)nc2C(=O)N2CCC[C@@H]2C)cn1)C(F)(F)F` (relative stereo) [Example 377, 5-(4-(Difluoromethyl)-6-(((S)-1,1,1-trifluorobutan-2-yl)amino)pyridin-3-yl)-N-((1S*,2S*)-2-hydroxycyclobutyl)-4-((S)-2-methylpyrrolidine-1-carbonyl)thiazole-2-carboxamide], which Kd [1] is on record?
**A.** 3.4 nM

**Q.** And the inhibition at 3 µM (full-length human RORγt)?
**A.** 91%

**Q.** What about the IC50 (full-length human RORγt; [2]) of the same compound?
**A.** 32 nM

**Q.** Which Kd [1] does the source give for `C[C@H](Nc1cc(C(F)F)c(-c2sc(C(=O)NC3CCOCC3)nc2C(=O)N2CC(F)(F)C[C@@H]2C)cn1)C(F)(F)F` [Example 448, 4-[(2S)-4,4-Difluoro-2-methyl-pyrrolidine-1-carbonyl]-5-[4-(difluoromethyl)-6-[[(1S)-2,2,2-trifluoro-1-methyl-ethyl]amino]-3-pyridyl]-N-tetrahydropyran-4-yl-thiazole-2-carboxamide] here?
**A.** 0.8 nM

**Q.** And the inhibition at 3 µM (full-length human RORγt)?
**A.** 99%

**Q.** And the IC50 (full-length human RORγt; [2])?
**A.** 28 nM

**Q.** What does the source list for `C[C@H](Nc1cc(C(F)F)c(-c2sc(C(=O)N[C@@H]3CC[C@H]3O)nc2C(=O)N2C3CCC2CC3)cn1)C(F)(F)F` (relative stereo) [Example 291, 4-((1s,4s)-7-Azabicyclo[2.2.1]heptane-7-carbonyl)-5-(4-(difluoromethyl)-6-(((S)-1,1,1-trifluoropropan-2-yl)amino)pyridin-3-yl)-N-((1R*,2R*)-2-hydroxycyclobutyl)thiazole-2-carboxamide]?
**A.** Kd [1]: 6.9 nM; inhibition at 3 µM (full-length human RORγt): 113%; IC50 (full-length human RORγt; [2]): 120 nM

**Q.** For `C[C@H]1CCCN1C(=O)c1nc(C(=O)N2CC3(COC3)C2)sc1-c1cnc(NC(C)(C)C)cc1C(F)(F)F` [Example 368, [5-[6-(tert-Butylamino)-4-(trifluoromethyl)-3-pyridyl]-2-(6-oxa-2-azaspiro[3.3]heptane-2-carbonyl)thiazol-4-yl]-[(2S)-2-methylpyrrolidin-1-yl]methanone], which Kd [1] is on record?
**A.** 1.7 nM

**Q.** What about the inhibition at 3 µM (full-length human RORγt) of the same compound?
**A.** 110%

**Q.** What about the IC50 (full-length human RORγt; [2]) of the same compound?
**A.** 7.5 nM

**Q.** Which results are given for `O=C(N[C@H]1CCC[C@@H]1O)c1nc(C(=O)N2C3CCC2CC3)c(-c2cnc(N[C@@H](C3CC3)C(F)(F)F)cc2C(F)F)s1` [Example 451, 4-(7-Azabicyclo[2.2.1]heptane-7-carbonyl)-5-[6-[[(1S)-1-cyclopropyl-2,2,2-trifluoro-ethyl]amino]-4-(difluoromethyl)-3-pyridyl]-N-[(1S,2S)-2-hydroxycyclopentyl]thiazole-2-carboxamide]?
**A.** Kd [1]: 0.29 nM; inhibition at 3 µM (full-length human RORγt): 99%; IC50 (full-length human RORγt; [2]): 290 nM

**Q.** Which results are given for `O=C(NC1CCS(=O)(=O)CC1)c1nc(C(=O)N2C3CCC2CC3)c(-c2cnc(N[C@@H](C3CC3)C(F)(F)F)cc2C(F)F)s1` [Example 436, 4-((1s,4s)-7-Azabicyclo[2.2.1]heptane-7-carbonyl)-5-[6-[[(1S)-1-cyclopropyl-2,2,2-trifluoro-ethyl]amino]-4-(difluoromethyl)-3-pyridyl]-N-(1,1-dioxothian-4-yl)thiazole-2-carboxamide]?
**A.** Kd [1]: 1 nM; inhibition at 1 µM (full-length human RORγt): 117%; IC50 (full-length human RORγt; [2]): 48 nM

**Q.** What does the source list for `C[C@H]1CCCN1C(=O)c1nc(C(=O)N[C@H](C)C(C)(C)O)sc1-c1cnc(N[C@H](C)C(F)(F)F)cc1C(F)F` [Example 306, 5-(4-(Difluoromethyl)-6-(((R)-1,1,1-trifluoropropan-2-yl)amino)pyridin-3-yl)-N—((R)-3-hydroxy-3-methylbutan-2-yl)-4-((S)-2-methylpyrrolidine-1-carbonyl)thiazole-2-carboxamide]?
**A.** Kd [1]: 10 nM; inhibition at 3 µM (full-length human RORγt): 104%; IC50 (full-length human RORγt; [2]): 130 nM

**Q.** Which results are given for `C[C@H]1CCCN1C(=O)c1nc(C(=O)NC2CN(C)C2)sc1-c1cnc(NC(C)(C)C)cc1C(F)(F)F` [Example 356, 5-[6-(tert-Butylamino)-4-(trifluoromethyl)-3-pyridyl]-N-(1-methylazetidin-3-yl)-4-[(2S)-2-methylpyrrolidine-1-carbonyl]thiazole-2-carboxamide]?
**A.** Kd [1]: 47 nM; inhibition at 3 µM (full-length human RORγt): 94%; IC50 (full-length human RORγt; [2]): 35 nM

**Q.** Which Kd [1] does the source give for `C[C@H](Nc1cc(C(F)F)c(-c2sc(C(=O)N[C@H]3C[C@@H]3O)nc2C(=O)N2CCC[C@@H]2C)cn1)C(F)(F)F` (single isomer, unassigned) [Example 158, 5-(4-(Difluoromethyl)-6-(((S)-1,1,1-trifluoropropan-2-yl)amino)pyridin-3-yl)-N-((1S*,2S*)-2-hydroxycyclopropyl)-4-((S)-2-methylpyrrolidine-1-carbonyl)thiazole-2-carboxamide] here?
**A.** 17 nM

**Q.** And the “RORγt (FL) Reporter Assay B or C, % inhibition (value marked *)” value (full-length human RORγt; Conditions B or C, marked *: footnote not given)?
**A.** 96* %

**Q.** What about the IC50 (full-length human RORγt; Conditions B or C, read-out: RORγt (FL) Reporter Assay B or C, IC50) of the same compound?
**A.** 310 nM

**Q.** What does the source list for `C[C@H]1CC(F)(F)CN1C(=O)c1nc(C(=O)N[C@H]2C[C@H](O)C2)sc1-c1cnc(NC2(C)CCC2)cc1C(F)F` [Example 327, 4-((S)-4,4-Difluoro-2-methylpyrrolidine-1-carbonyl)-5-(4-(difluoromethyl)-6-((1-methylcyclobutyl)amino)pyridin-3-yl)-N-((1r,3S)-3-hydroxycyclobutyl)thiazole-2-carboxamide]?
**A.** Kd [1]: 2 nM; inhibition at 3 µM (full-length human RORγt): 93%; IC50 (full-length human RORγt; [2]): 11 nM

**Q.** `C[C@H]1CCCN1C(=O)c1nc(C(=O)N[C@@H]2CC[C@H]2O)sc1-c1cnc(NC(C)(C)C)cc1C(F)(F)F` (relative stereo) [Example 370, 5-(6-(tert-Butylamino)-4-(trifluoromethyl)pyridin-3-yl)-N-((1R*,2R*)-2-hydroxycyclobutyl)-4-((S)-2-methylpyrrolidine-1-carbonyl)thiazole-2-carboxamide] was tested. Which Kd [1] did it give?
**A.** 0.69 nM

**Q.** And the inhibition at 3 µM (full-length human RORγt)?
**A.** 96%

**Q.** What about the IC50 (full-length human RORγt; [2]) of the same compound?
**A.** 10 nM

**Q.** How did the Kd [1] turn out when `CC[C@H](Nc1cc(C(F)F)c(-c2sc(C(=O)N[C@H]3CC[C@H](O)C3)nc2C(=O)N2CC(F)(F)C[C@@H]2C)cn1)C(F)(F)F` [Example 416, 4-[(2S)-4,4-Difluoro-2-methyl-pyrrolidine-1-carbonyl]-5-[4-(difluoromethyl)-6-[[(1S)-1-(trifluoromethyl)propyl]amino]-3-pyridyl]-N-[(1S,3S)-3-hydroxycyclopentyl]thiazole-2-carboxamide] was run?
**A.** 0.43 nM

**Q.** What about the inhibition at 1 µM (full-length human RORγt) of the same compound?
**A.** 89%

**Q.** What about the IC50 (full-length human RORγt; [2]) of the same compound?
**A.** 37 nM

**Q.** Which Kd [1] does the source give for `CC(C)(C)Nc1cc(C(F)F)c(-c2sc(C(=O)N[C@H]3CC[C@H](O)C3)nc2C(=O)N2C3CCC2CC3)cn1` [Example 413, 4-((1s,4s)-7-Azabicyclo[2.2.1]heptane-7-carbonyl)-5-[6-(tert-butylamino)-4-(difluoromethyl)-3-pyridyl]-N-[(1S,3S)-3-hydroxycyclopentyl]thiazole-2-carboxamide] here?
**A.** 0.82 nM

**Q.** And the IC50 (full-length human RORγt; RORγt (FL) Reporter Assay B or C, IC50)?
**A.** 20 nM

**Q.** And the inhibition at 1 µM (full-length human RORγt)?
**A.** 133%

**Q.** What does the source list for `C[C@H]1CCCN1C(=O)c1nc(C(=O)NCC(C)(C)O)sc1-c1cnc(N[C@H]2CCCC2(F)F)cc1C(F)(F)F` (single isomer, unassigned) [Example 279, 5-(6-(((S*)-2,2-Difluorocyclopentyl)amino)-4-(trifluoromethyl)pyridin-3-yl)-N-(2-hydroxy-2-methylpropyl)-4-((S)-2-methylpyrrolidine-1-carbonyl)thiazole-2-carboxamide]?
**A.** Kd [1]: 18 nM; inhibition at 1 µM (full-length human RORγt): 109%; IC50 (full-length human RORγt; [2]): 62 nM
